Experimental data reported in patent US12679839B2, “Cyclin-dependent kinase 7 (CDK7) non-covalent inhibitors” (JANSSEN PHARMACEUTICA NV, priority 2020, dated 2026).

tested on: RNA polymerase II Serine 5 phosphorylation (Rpb1 CTD), downstream substrate of CDK7; assay: Imaging-based cellular RNA PolII Ser5 phosphorylation assay in A549 cells; assay type: cell-based, human; settings: Homo sapiens, A549, 3 h, challenged with compound for 3 hours, read-out: pRNA polII Ser5 (A549) pIC50 (converted)
From the text: Dosing curves were fitted using the following equation to obtain IC50: Y=Bottom+(Top−Bottom)/(1+10^((log IC50−X)*Hill slope)) where X=log10 of the compound concentration; top and bottom can be defined by PC and NC respectively. Imaging-Based Cellular RNA PolII Ser5 Phosphorylation Assay
To evaluate inhibition of CDK7 kinase activity, a 384-well automated imaging assay was used. This assay detects Serine 5 phosphorylation on a unique heptapeptide sequence in the C-terminal domain of Rpb1 subunit of RNA polymerase II, the downstream substrate of CDK7. This heptapeptide sequence is repeated up to 52 times in the CTD of Rpb1.
A549 adenocarcinoma human alveolar basal epithelial cells (ATCC, CCL-185), rabbit Phospho-Rpb1 CTD (Ser5) antibody (D9N51 (Cell Signaling Technology)), DMEM (Sigma), Fetal Bovine Serum (Biowest), L-glutamine (Sigma), Penicillin/Streptomycin (Life Technologies), Sodium Pyruvate (Sigma), Hepes (Sigma), poly-D-lysine coated μclear 384 black plates (Greiner), formaldehyde (PolySciences), D-PBS (Sigma), Methanol (Sigma), Alexa Fluor 488 goat anti rabbit IgG secondary antibody (Life Technologies), HCS CellMask™ Deep Red stain (Life Technologies), Hoechst 33258 (Invitrogen).
RNA Polymerase II Serine 5 phosphorylation was detected using a specific rabbit Phospho-Rpb1 CTD (Ser5) antibody. A549 adenocarcinoma human alveolar basal epithelial cells were seeded in 20 μl medium (DMEM supplemented with 1% Fetal Bovine Serum (heat inactivated 30′ 56° C.), 2 mM L-glutamine, 50 U/ml penicillin 50 μg/ml streptomycin, 1 mM sodium pyruvate and 50 mM hepes) at 1000 cells/well and cultured in poly-D-lysine coated μclear 384 black plates for 20 hours at 37° C. and 5% CO2.
After incubation cells were challenged with compound for 3 hours at 37° C. and 5% CO2. DMSO was used as high control and as low control 10 μM of LDC4297 reference compound was used. 40 nl of test compounds and controls were spotted in cell plates using Echo Liquid Handler (Echo 550, Labcyte). Incubation was followed by 20 minutes fixation with 20 μl 10% formaldehyde at room temperature. Medium/formaldehyde solution was removed, plates were washed 3 times with 30 μl D-PBS (w/o Ca^2+ and Ma^2+) and permeabilization was done by adding 20 μl ice cold methanol for 20 minutes. Cells were washed again 3 times with 30 μl D-PBS and 20 μl blocking buffer (25 ml fetal bovine serum in 500 ml D-PBS) was added for 1 hour.
After removing blocking buffer 20 μl 1/1000 primary antibody rabbit. Phospho-Rpb1 CTD (Ser5) antibody was added which binds to the phosphorylated Serine5 of the heptapeptide sequences in the CTD of Rpb1. Primary antibody was removed, and plates were washed 3 times with 30 μl D-PBS followed by addition of 20 μl 1/2000 Alexa Fluor 488 goat anti rabbit IgG secondary antibody for final detection of Phospho-Rpb1 CTD (Ser5) together with 1/5000 HCS CellMask™ Deep Red stain for membrane staining and 1/5000 Hoechst 33258 for nucleus staining. Last, plates were washed 2 times with 30 μl D-PBS and wells were filled with 40 μL D-PBS, plates were sealed (Thermowell sealing tape) and stored at 4° C. until reading. Plates were read with Opera Phenix (Perkin Elmer) with 10× air objective. Data were calculated and analyzed in Phaedra.
IC50 values were calculated using the following formula:
Average value of all HC's and all LC's are used for normalizations. % Effect=100−(sample−LC)/(HC−LC)×100% Control=(sample/HC)×100
A best-fit curve is fitted by a minimum sum of squares method to the plot of % Control vs. compound concentration. From this an IC50 value can be obtained. An estimate of the slope of the plot in terms of the Hill coefficient is also obtained.

| IC50 [nM] | SMILES |
| --- | --- |
| 234 | CN1CC[C@H](C(=O)N2Cc3nc(NCc4ccn(C)n4)ncc3[C@@H]3C[C@@H]32)[C@@H](c2ccccc2)C1 [Compound 198] |
| ~33.1 | C[C@@H]1Cc2cnc(Nc3ccnc(C4CC4)c3)nc2CN1C(=O)[C@H]1CCN(C)C[C@@H]1c1ccccc1 [Compound 76] |
| 447 | Cc1nn(C)cc1Nc1ncc2c(n1)CN(C(=O)[C@H]1CCN(C)C[C@@H]1c1ccccc1)[C@H](C)C2 [Compound 86] |
| 182 | CC(C)Oc1cccc([C@H]2CN(C)CC[C@@H]2C(=O)N2Cc3nc(NCc4ccn(C)n4)ncc3C[C@H]2C)c1 (relative stereo) [Compound 138b] |
| 661 | Cc1c(Nc2ncc3c(n2)CN(C(=O)[C@H]2CCN(C)C[C@@H]2c2ccccc2)[C@H](C)C3)cnn1C [Compound 87] |
| 28.8 | C[C@@H]1Cc2cnc(Nc3cnn(C4CCCC4)c3)nc2CN1C(=O)[C@H]1CCN(C)C[C@@H]1c1ccccc1 [Compound 88] |
| 603 | [2H]C([2H])([2H])c1cccc([C@@H]2CN(C)CC[C@H]2C(=O)N2Cc3nc(NCc4ccn(C)n4)ncc3C[C@H]2C)c1 (relative stereo) [Compound 99] |
| 490 | C[C@@H]1Cc2cnc(N[C@@H]3COc4ccccc43)nc2CN1C(=O)[C@H]1CCN(C)C[C@@H]1c1ccccc1 (relative stereo) [Compound 18] |
| 3720 | [2H]C([2H])([2H])N1CC[C@@H](C(=O)N2Cc3cc(NCc4ccn(C)n4)ncc3C[C@@H]2C)[C@H](c2ccccc2)C1 (single isomer, unassigned) [Compound 178] |
| 240 | CO[C@H]1CC[C@H](Nc2ncc3c(n2)CN(C(=O)[C@H]2CCN(C)C[C@@H]2c2ccccc2)C(C)(C)C3)CC1 (single isomer, unassigned) [Compound 190] |
| 776 | C[C@H]1Cc2cnc(NC3CCOCC3)nc2[C@H](C)N1C(=O)[C@H]1CCN(C)C[C@@H]1c1ccccc1 [Compound 196] |
| ~26.3 | [2H]C([2H])([2H])c1cccc([C@H]2CN(C)CC[C@@H]2C(=O)N2Cc3nc(NCc4ccn(C)n4)ncc3C[C@H]2C)c1 (relative stereo) [Compound 100] |
| 40.7 | C[C@@H]1Cc2cnc(N[C@H]3CCOC4(CCCC4)C3)nc2CN1C(=O)[C@H]1CCN(C)C[C@@H]1c1ccccc1 (relative stereo) [Compound 16] |
| 363 | C[C@@H]1Cc2cnc(N[C@H]3COc4ccccc43)nc2CN1C(=O)[C@H]1CCN(C)C[C@@H]1c1ccccc1 (relative stereo) [Compound 17] |
| > 10000 | C[C@@H]1Cc2cnc(NC3CCOCC3)nc2CN1C(=O)[C@H]1CCN(C2COC2)C[C@@H]1c1ccccc1 (single isomer, unassigned) [Compound 159] |

Continued, compound first:

| SMILES | IC50 [nM] |
| --- | --- |
| C[C@@H]1Cc2cnc(Nc3cn(C)nc3C(F)(F)F)nc2CN1C(=O)[C@H]1CCN(C)C[C@@H]1c1ccccc1 [Compound 84] | 1120 |
| C[C@@H]1Cc2cnc(Nc3cnn(CC4CC4)c3)nc2CN1C(=O)[C@H]1CCN(C)C[C@@H]1c1ccccc1 [Compound 80] | 18.6 |
| C[C@@H]1Cc2cnc(NCc3ccn(C)n3)nc2CN1C(=O)[C@@H]1CCN(C)C[C@H]1c1cccc(C(F)F)c1 (relative stereo) [Compound 123] | 2400 |
| CC(C)Oc1cccc([C@@H]2CN(C)CC[C@H]2C(=O)N2Cc3nc(NCc4ccn(C)n4)ncc3C[C@H]2C)c1 (relative stereo) [Compound 138a] | > 10000 |
| C[C@@H]1Cc2cnc(NCc3ccn(C)n3)nc2CN1C(=O)[C@H]1CCN(C)C[C@@H]1c1cccc(C(F)F)c1 (relative stereo) [Compound 124] | ~44.7 |
| C[C@@H]1Cc2cnc(Nc3cnn(CC(F)F)c3)nc2CN1C(=O)[C@H]1CCN(C)C[C@@H]1c1ccccc1 [Compound 85] | ~30.9 |
| CC(C)N1CC[C@H](C(=O)N2Cc3nc(NC4CCOCC4)ncc3C[C@H]2C)[C@@H](c2ccccc2)C1 (single isomer, unassigned) [Compound 157] | 178 |
| Cc1nn(C)c(C)c1Nc1ncc2c(n1)CN(C(=O)[C@H]1CCN(C)C[C@@H]1c1ccccc1)[C@H](C)C2 [Compound 81] | 1350 |
| CCN1CC[C@H](C(=O)N2Cc3nc(NC4CCOCC4)ncc3C[C@H]2C)[C@@H](c2ccccc2)C1 (single isomer, unassigned) [Compound 158] | 77.6 |
| C[C@@H]1CN(C)CC[C@H]1C(=O)N1Cc2nc(NCc3ccn(C)n3)ncc2C[C@H]1C (relative stereo) [Compound 147] | 813 |
| Cc1cccc([C@@H]2CN(C)CC[C@H]2C(=O)N2Cc3cc(Nc4cnn(C)c4)ncc3C[C@@H]2C)c1 (single isomer, unassigned) [Compound 179] | ~83.2 |
| CCO[C@H]1CC[C@H](Nc2ncc3c(n2)CN(C(=O)[C@H]2CCN(C)C[C@@H]2c2ccccc2)[C@H](C)C3)CC1 [Compound 19] | 41.7 |
| Cc1cccc([C@H]2CN(C)CC[C@@H]2C(=O)N2Cc3nc(Nc4ccnc(C)c4)ncc3C[C@H]2C)c1 [Compound 135] | ~20.4 |
| C[C@@H]1Cc2cnc(NCc3ccn(C)n3)nc2CN1C(=O)[C@H]1CCN(C)C[C@@H]1c1cccc(C2CC2)c1 (relative stereo) [Compound 121] | < 2.45 |

same assay, conditions: challenged with compound for 3 hours

| pRNA polII Ser5 (A549) pIC50 | SMILES |
| --- | --- |
| 6.23 | [2H]C([2H])([2H])c1cccc([C@@H]2CN(C)CC[C@H]2C(=O)N2Cc3nc(Nc4cnn(C)c4)ncc3C[C@H]2C)c1 (relative stereo) [Compound 97] |
| ~7.6 | [2H]C([2H])([2H])c1cccc([C@@H]2CN(C)CC[C@H]2C(=O)N2Cc3nc(Nc4cnn(C)c4)ncc3C[C@H]2C)c1 (relative stereo) [Compound 98] |
